Laboratory results taken from patent US12285407B2, “Bis-indolylmethane derivatives and uses thereof” (The University of The West Indies, priority 2018, dated 2025).
Converted amounts (≈) assume the structure as drawn. Like-named read-outs stand apart in the source and are kept apart here.

What was measured:
[1] = test system: MRSA; test: Adjuvant broth microdilution (antibiotic MIC with SP-BIM at 50 μg/mL); assay type: cell-based, Staphylococcus aureus; conditions: antibiotic alone, Table 8 (series SP-BIMs 21-29)
[2] = test system: Klebsiella pneumoniae; test: as above; assay type: cell-based; conditions: Klebsiella pneumonia; antibiotic alone, no SP-BIM
[3] = test system: Bacillus cereus; test: as above; assay type: cell-based; conditions: antibiotic alone, Table 9
[4] = test system: Enterococcus faecalis; test: as above; assay type: cell-based; conditions: antibiotic alone
[5] = test system: Pseudomonas aeruginosa; test: as above; assay type: cell-based; conditions: antibiotic alone
[6] = test system: Enterobacter cloacae; test: as above; assay type: cell-based; conditions: antibiotic alone
[7] = test system: Escherichia coli O157:H7; assay type: cell-based; conditions: antibiotic alone, no SP-BIM
[8] = test system: clinical strains of MRSA; test: Kirby Bauer disc diffusion susceptibility profile; assay type: cell-based, Staphylococcus aureus; conditions: for Zone of clearance: 35° C., 24 hours, average n=3; for Interpretive standard (resistant/susceptible): zones vs EUCAST breakpoints (Table 30)
[9] = test system: Pseudomonas aeruginosa; test: Rescue concentrations of SP-BIM that reactivate antibiotic; assay type: cell-based; conditions: Pseudomonas aeruginosa; P. aeruginosa; agent alone; read-out: MIC (single agent)
[10] = test system: Streptococcus pyogenes ATCC 19615; test: Broth microdilution MIC of SP-BIMs; assay type: cell-based; conditions: ATCC19615, SP-BIM alone, read-out: MIC Streptococcus pyogenes ATCC 19615
[11] = test system: Bacillus cereus ATCC 14579; test: Broth microdilution MIC of SP-BIMs; assay type: cell-based; conditions: ATCC14579, SP-BIM alone, read-out: MIC Bacillus cereus ATCC 14579
[12] = test system: Enterococcus faecium ATCC 19434; test: Broth microdilution MIC of SP-BIMs; assay type: cell-based; conditions: ATCC19434, SP-BIM alone, read-out: MIC Enterococcus faecium ATCC 19434
[13] = test system: Corynebacterium diphtheriae ATCC 27010; test: Broth microdilution MIC of SP-BIMs; assay type: cell-based; conditions: ATCC27010, SP-BIM alone, read-out: MIC Corynebacterium diphtheriae ATCC 27010
[14] = test system: Staphylococcus aureus ATCC 12600; test: Broth microdilution MIC of SP-BIMs; assay type: cell-based; conditions: ATCC12600, SP-BIM alone, read-out: MIC Staphylococcus aureus ATCC 12600
[15] = test system: Klebsiella pneumoniae ATCC 49472; test: Broth microdilution MIC of SP-BIMs; assay type: cell-based; conditions: ATCC49472, SP-BIM alone, read-out: MIC Klebisella pneumoniae ATCC 49472
[16] = test system: Escherichia coli ATCC 35218; test: Broth microdilution MIC of SP-BIMs; assay type: cell-based; conditions: ATCC35218, SP-BIM alone, read-out: MIC Escherichia coli ATCC 35218
[17] = test system: Salmonella typhimurium ATCC 14028; test: Broth microdilution MIC of SP-BIMs; assay type: cell-based; conditions: Salmonella enterica, read-out: MIC Salmonella tvpkimurium ATCC 14028
How it was run: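 S. typhimurium at ~10^6 CFU mL^−1 in cation-adjusted Mueller Hinton broth was exposed to twofold compound dilutions from 250 to 0.02 μg mL^−1 at 35° C. for 18 hours. Resazurin was then added, with 1 hour of shaking. MIC was the lowest concentration showing no blue-to-pink colour change.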

[18] = test system: Pseudomonas aeruginosa ATCC 27853; test: Broth microdilution MIC of SP-BIMs; assay type: cell-based; conditions: ATCC27853, SP-BIM alone, read-out: MIC Pseudomonas aeruginosa ATCC 27853
[19] = test system: Candida albicans ATCC 22972; test: Broth microdilution MIC of SP-BIMs; assay type: cell-based; conditions: ATCC22972, SP-BIM alone, read-out: MIC Candida albicans ATCC 22972
[20] = test system: panel of ATCC reference pathogen strains; test: Broth microdilution MIC of SP-BIMs, panel summary in text; assay type: cell-based
Source text: Reference microorganisms used in this study included: Bacillus cereus (American Type Culture Collection (ATCC) No. 14579), Streptococcus pyogenes (ATCC No. 19615), Staphylococcus aureus (ATCC No. 12600), Enterococcus faecium (ATCC No. 19434), Corynebacterium diphtheriae (ATCC No. 27010), Escherichia coli (ATCC No. 35218), Salmonella typhimurium (ATCC No. 14028), Pseudomonas aeruginosa (ATCC No. 27853), Klebsiella pneumoniae (ATCC No. 49472), and Candida albicans (ATCC No. 22972).
Prior to each experiment, cultures were streaked onto clean BHI agar plates and incubated at 35° C. for 24 hours. Colonies of the respective cultures were selected and inoculated in phosphate buffer saline (pH 7.5) to a 0.5 McFarland turbidity standard (equivalent to 10^8 CFU mL^−1). […]
To assess the antibiotic properties of the library of SP-BIMs, the broth microdilution assay was performed in 96-well microplates according to the Clinical and Laboratory Standards Institute 2014 Guidelines (CLSI 2014). […] The MIC was recorded as the well with the lowest concentration of test compound where no color change was observed.
The antimicrobial activity of the library of substituted [bis(indol-3yl)]methanes was assessed against a panel of ATCC reference pathogen strains of clinical relevance. […]

[21] = test system: Streptococcus pneumoniae; test: Adjuvant broth microdilution (antibiotic MIC with SP-BIM at 50 μg/mL); assay type: cell-based; conditions: Streptococcus pneumoniae, Streptococcus pneumonia, SP-BIM at 50 μg mL^−1
[22] = read-out: MIC of Kanamvcin with SP-BIM
[23] = read-out: MIC of Vancomvcin with SP-BIM

## O=C(N[C@H](CO)[C@H](O)c1ccc([N+](=O)[O-])cc1)C(Cl)Cl [Chloramphenicol, chloramphenicol]
[1]
  MIC of antibiotic, No Compound: <0.5 µg/mL
[2]
  MIC of antibiotic, No Compound: >250 µg/mL
[3]
  MIC of antibiotic, No Compound: 4 µg/mL
[4]
  MIC of antibiotic, No Compound: 250 µg/mL
[5]
  MIC of antibiotic, No Compound: 250 µg/mL
[6]
  MIC of antibiotic, No Compound: 16 µg/mL
[7]
  MIC of antibiotic, No Compound: 8 µg/mL
[8]; MRSA strain 1594
  Zone of clearance: 18.5 mm
  Interpretive standard (resistant/susceptible): S
[8]; MRSA strain 1621
  Zone of clearance: 24.5 mm
  Interpretive standard (resistant/susceptible): S
[8]; MRSA strain 5455
  Zone of clearance: 22.0 mm
  Interpretive standard (resistant/susceptible): S
[8]; MRSA strain 5872
  Zone of clearance: 20.5 mm
  Interpretive standard (resistant/susceptible): S
[8]; MRSA strain 7153
  Zone of clearance: 18.0 mm
  Interpretive standard (resistant/susceptible): S
[8]; MRSA strain 7172
  Zone of clearance: 19.5 mm
  Interpretive standard (resistant/susceptible): S
[8]; MRSA strain 7698
  Zone of clearance: 16.5 mm
  Interpretive standard (resistant/susceptible): S
[8]; MRSA strain 10132
  Zone of clearance: 21.5 mm
  Interpretive standard (resistant/susceptible): S
[9]
  MIC: 250 µg/mL (≈ 774 µM)

## c1ccc(C(c2c[nH]c3ccccc23)c2c[nH]c3ccccc23)cc1 [SP-BIM 1, bis(indol-3-yl)-phenylmethane]
[10]
  MIC: 83 µg/mL
[11]
  MIC: 83 µg/mL
[12]
  MIC: 52 µg/mL
[13]
  MIC: 125 µg/mL
[14]
  MIC: > 250 µg/mL
[15]
  MIC: > 250 µg/mL
[16]
  MIC: > 250 µg/mL
[17]
  MIC: 250 µg/mL
[18]
  MIC: 250 µg/mL
[19]
  MIC: 250 µg/mL
[20]
  antibacterial activity: displayed antibacterial activity, and only against Gram-positive bacteria
[21]; [22]
  MIC: 125 µg/mL
[21]; [23]
  MIC: 1 µg/mL

## c1ccc2c(C(c3ncc[nH]3)c3c[nH]c4ccccc34)c[nH]c2c1 [SP-BIM 4, [bis(indol-3-yl)imidazol-2-yl]methane]
[10]
  MIC: 104 µg/mL
[11]
  MIC: 125 µg/mL
[12]
  MIC: 104 µg/mL
[13]
  MIC: 166 µg/mL
[14]
  MIC: 166 µg/mL
[15]
  MIC: > 250 µg/mL
[16]
  MIC: > 250 µg/mL
[17]
  MIC: 250 µg/mL
[18]
  MIC: 250 µg/mL
[19]
  MIC: 250 µg/mL
[20]
  antibacterial activity: displayed antibacterial activity, and only against Gram-positive bacteria
[21]; [22]
  MIC: 125 µg/mL
[21]; [23]
  MIC: 1 µg/mL
